Laboratory results: patent US20230321265A1, “KAPPA OPIOID RECEPTOR AGONIST-THERAPEUTIC ANTIGEN BINDING PROTEIN CONJUGATE (KTAC) COMPOUNDS” (Cara Therapeutics, Inc., priority 2020, published 2023)
Marks after values point to notes of the source that are not given here.

Tests used:
[1] = tested on: Human monocyte-derived macrophages; assay: Cytokine release from LPS/IFN-γ stimulated human monocyte-derived macrophages (multiplex immunoassay); format: cell-based
Description: Human monocyte-derived macrophages were stimulated with lipopolysaccharide (LPS) and interferon gamma (IFN-γ) in the presence and absence of CR845 or interleukin-10 (IL-10; 10 ng/mL). Cytokine release in the 18-hour supernatants was measured by multiplex immunoassay (N=4 donors per condition, with assays run in triplicate), with results expressed as mean cytokine release (± SEM) following stimulation with LPS and IFN-γ. […] The minimum effective concentration was 2.0 nM, which was the lowest concentration tested (see Table 1).
Statistical comparisons: *, P<0.05; **, P<0.01; ***, P<0.001 compared with LPS/IFN-γ alone; ##, P<0.001 compared with LPS/IFN-γ + CR845 at 50 nM §, P<0.05 compared with LPS/IFN-γ + CR845 at 50 nM; ¶, P<0.005 compared with LPS/IFN-γ; ¶¶, P<0.001 compared with LPS/IFN-γ

LPS-induced TNF release = assay: LPS-induced serum TNF-alpha in mice (ELISA); format: in vivo, female Balb/c mice; settings: 3 and 10 mg/kg SC, 30 min before LPS 1 mg/kg IP, serum 2 hours post-LPS
Description: FIG. 5 Reduction in LPS-induced TNF release in Mice Pretreated with SC CR845 at 1, 3 and 10 mg/kg; and separately showing a comparison of the effect of prednisone as compared with vehicle alone.
Thirty minutes later, mice were injected IP with the bacterial lipopolysaccharide (LPS, 1 mg/kg) and serum samples collected 2 hours post-LPS treatment (n = 8/group). TNF-alpha levels in serum were determined by ELISA.

[2] = tested on: LPS-Induced Cytokine Release; assay: LPS-induced cytokine release in mice (Luminex); format: in vivo, female Balb/c mice; settings: 30 min before LPS 1 mg/kg IP, serum 2 hr post-LPS
Description: Data were summarized as percent reduction from vehicle-treated controls (n = 8/group). (*p<0.05 vs. vehicle; unpaired t-test).

[3] = tested on: carrageenan-induced paw swelling; assay: Carrageenan-induced paw edema in rats; format: in vivo, male SD rats
Description: FIG. 6: Intravenous CR845 Produces Dose-Dependent Inhibition of Carrageenan-Induced Paw Edema Formation in Rats: Chart showing paw volume after administration of vehicle alone, or vehicle plus 0.1, 0.3 or 1.0 mg/kg CR845.
In a rat model of inflammatory disease, intraplantar injection of carrageenan in one hind paw is commonly used to produce acute inflammation, resulting in the swelling of the inoculated paw (Stein, Millan et al. 1988). Animals were administered CR845 IV (tail vein, 1 mL/kg) 30 min prior to intraplantar carrageenan administration (100 µL 2% carrageenan into left hind paw; n=6/group). Paw volumes were assessed 3.5 hr post treatment (i.e., 3 hr post-carrageenan injection).

[4] = tested on: human rheumatoid arthritis (RA) synoviocytes; assay: TNF-alpha release from human rheumatoid arthritis synoviocytes stimulated with interferon-gamma and anti-CD40 antibody; settings: 48 hour period
Description: Concentrations of TNF-alpha are then measured in tissue culture supernatants by multiplex immunoassay.

[5] = LPS/IFNγ stimulated, CR845 50 nM, 18-hour supernatant, mean (SEM)
[6] = LPS/IFNγ stimulated, nor-BNI 10 nM alone, mean (SEM)

SMILES: CC(C)C[C@@H](NC(=O)[C@@H](Cc1ccccc1)NC(=O)[C@H](N)Cc1ccccc1)C(=O)N[C@H](CCCCN)C(=O)N1CCC(N)(C(=O)O)CC1 [CR845, D-Phe-D-Phe-D-Leu-D-Lys-[ω(4-aminopiperidine-4carboxylic acid)]-OH]
- IL-6 release ([1]; LPS/IFNγ stimulated, CR845 10 nM, 18-hour supernatant, mean (SEM)): 398.0 (108.4) pg/mL
- IL-6 release [1, 5]: 563.7 (53.9) pg/mL
- IL-8 release [1, 5]: 1211 (56.7) pg/mL
- minimum effective concentration for reduction of cytokine secretion ([1]; lowest concentration tested): 2.0 nM
- secretion of TNF, IL-1β, IL-6, IL-8 and GCSF following stimulation with LPS and IFN-γ ([1]; primary human macrophages, vs. vehicle): significantly reduced
- serum TNF-alpha suppression (LPS-induced TNF release): dose-dependent suppression of TNF-alpha that is statistically significant
- GM-CSF % Inhibition ([2]; CR845 10 mg/kg SC): 7%
- IL-1α % Inhibition ([2]; CR845 10 mg/kg SC): -37%
- IL-1β % Inhibition ([2]; CR845 10 mg/kg SC): 26* %
- IL-2 % Inhibition ([2]; CR845 10 mg/kg SC): 23* %
- IL-4 % Inhibition ([2]; CR845 10 mg/kg SC): 21%
- IL-6 % Inhibition ([2]; CR845 10 mg/kg SC): -10%
- IL-10 % Inhibition ([2]; CR845 10 mg/kg SC): 26%
- IL-12 (p40/p70) % Inhibition ([2]; CR845 10 mg/kg SC): 23* %
- MCP-1 % Inhibition ([2]; CR845 10 mg/kg SC): -11%
- MIP-1α % Inhibition ([2]; CR845 10 mg/kg SC): 19%
- MIP-1β % Inhibition ([2]; CR845 10 mg/kg SC): 19* %
- TNFα % Inhibition ([2]; CR845 10 mg/kg SC): 47* %
- minimum effective IV dose for reduction of carrageenan-induced paw swelling ([3]; IV 30 min prior to carrageenan, paw volume at 3.5 hr post-injection): 0.3 mg/kg
- carrageenan-induced paw swelling ([3]; IV, 0.1, 0.3 or 1.0 mg/kg, vs. vehicle): significantly reduces carrageenan-induced paw swelling
- TNF-alpha release (CD-40/interferon-gamma stimulated release standardized to 100) ([4]; 0.1 nM): 20
- TNF-alpha release (CD-40/interferon-gamma stimulated release standardized to 100) ([4]; 0.3 nM): -25

SMILES: C[C@]12C=CC(=O)C=C1CC[C@@H]1[C@@H]2[C@@H](O)C[C@@]2(C)[C@H]1CC[C@]2(O)C(=O)CO [Prednisolone, prednisolone]
- IL-1α % Inhibition ([2]; Prednisolone 3 mg/kg SC): 50* %
- IL-1β % Inhibition ([2]; Prednisolone 3 mg/kg SC): 39* %
- IL-2 % Inhibition ([2]; Prednisolone 3 mg/kg SC): 24* %
- IL-4 % Inhibition ([2]; Prednisolone 3 mg/kg SC): 41* %
- IL-6 % Inhibition ([2]; Prednisolone 3 mg/kg SC): -2%
- IL-10 % Inhibition ([2]; Prednisolone 3 mg/kg SC): 59* %
- IL-12 (p40/p70) % Inhibition ([2]; Prednisolone 3 mg/kg SC): 45* %
- MCP-1 % Inhibition ([2]; Prednisolone 3 mg/kg SC): -14%
- MIP-1α % Inhibition ([2]; Prednisolone 3 mg/kg SC): 35* %
- MIP-1β % Inhibition ([2]; Prednisolone 3 mg/kg SC): 19* %
- TNFα % Inhibition ([2]; Prednisolone 3 mg/kg SC): 64* %

SMILES: CCCC1O[C@@H]2C[C@H]3[C@@H]4CCC5=CC(=O)C=C[C@]5(C)[C@H]4[C@@H](O)C[C@]3(C)[C@]2(C(=O)CO)O1 (stereo partly shown) [budesonide]
- TNF-alpha release (CD-40/interferon-gamma stimulated release standardized to 100) ([4]; positive control, concentration not given): -25

SMILES: Oc1ccc2c3c1O[C@H]1c4[nH]c5c(c4C[C@@]4(O)[C@@H](C2)N(CC2CC2)CC[C@]314)C[C@@]1(O)[C@H]2Cc3ccc(O)c4c3[C@@]1(CCN2CC1CC1)[C@H]5O4 [nor-BNI]
- G-CSF release [1, 6]: 1214 (29.9) pg/mL
- IL-1 release [1, 6]: 39.9 (1.1) pg/mL
- IL-6 release [1, 6]: 803.9 (0.6) pg/mL
- IL-8 release [1, 6]: 1595 (13.3) pg/mL
- TNF release [1, 6]: 7186 (174.8) pg/mL
- effect of nor-BNI on the cytokine-reducing effect of CR845 ([1]; selective kappa opioid antagonist added to CR845): blocked
